Test results: patent US20090258860A1, “XANTHINE DERIVATIVES FOR THE TREATMENT OF VASCULAR DEPRESSION” (Duke University, priority 2006, published 2009)

Columns and labels:
[1] = tested on: elderly patients with a diagnosis of vascular depression; experiment: Case studies of pentoxifylline and propentofylline treatment of vascular depression (HDRS); assay type: in vivo, human; settings: oral monotherapy
Procedure: Patients are evaluated at baseline and at regular intervals for a period of months. They are evaluated according to the Hamilton Depressive Rating Scale (HDRS; Hamilton, J. Neurol. Neurosurg. Psychiatry 23:56-62 (1960)). Patients are excluded if their HDRS is ≦15.
In one group, pentoxifylline is administered orally in a dose of 400 mg three times a day. In another group, propentofylline is administered orally in a dose of 200 mg three times a day.

[2] = tested on: elderly patients with a diagnosis of vascular depression currently being treated with an SSRI and/or SNRI; experiment: Case studies of pentoxifylline and propentofylline add-on treatment of vascular depression (HDRS); assay type: in vivo, human; settings: add-on to existing SSRI and/or SNRI
Procedure: These case studies investigate the effects of pentoxifylline and propentofylline in one or more elderly patients (>60 years of age) with a diagnosis of vascular depression and who are currently being treated with an SSRI and/or SNRI.
Patients are evaluated at baseline and at regular intervals for a period of months. They are evaluated according to the Hamilton Depressive Rating Scale (HDRS; Hamilton, J. Neurol. Neurosurg. Psychiatry 23:56-62 (1960)).
In one group, pentoxifylline is administered orally in a dose of 400 mg three times a day to augment their SSRI and/or SNRI treatment regimen. In another group, propentofylline is administered orally in a dose of 200 mg three times a day to augment their SSRI and/or SNRI treatment regimen.

[3] = in vivo; cited from earlier work
[4] = tested on: patients with multi-infarct dementia; settings: cited from earlier work

SMILES	tolerability [1]	tolerability [2]	cerebral blood flow [3]	intellectual and cognitive function [4]
CCCn1cnc2c1c(=O)n(CCCCC(C)=O)c(=O)n2C [propentofylline, 1-(5-oxohexyl)-3-methyl-7-n-propylxanthine]	well tolerated	well tolerated		
CC(O)CCCCn1c(=O)c2c(ncn2C)n(C)c1=O (stereo not drawn) [1(5-hydroxyhexyl)-3,7-dimethylxanthine]			increasing cerebral blood flow	
CC(=O)CCCCn1c(=O)c2c(ncn2C)n(C)c1=O [pentoxifylline, 1-(5-oxohexyl)-3,7-dimethylxanthine]	well tolerated	well tolerated		improve
